In patent US9169252B2 (BRISTOL-MYERS SQUIBB COMPANY, priority 2014, dated 2015):
Where a name gives a salt, the structure may show the parent alone. Read-outs that look alike come from different tables or passages of the source.

Experiments:
[1] = target: IRAK4 (Homo sapiens (Human), UniProt Q9NWZ3); experiment: IRAK4 Inhibition Assay; type: biochemical; settings: ATP 500 μM, read-out: IRAK4 IC50
Description: The assays were performed in U-bottom 384-well plates. […] The reaction was initiated by the combination of IRAK4 with substrates and test compounds. The reaction mixture was incubated at room temperature for 60 min. and terminated by adding 45 μL of 35 mM EDTA to each sample. The reaction mixture was analyzed on the Caliper LABCHIP® 3000 (Caliper, Hopkinton, Mass.) by electrophoretic separation of the fluorescent substrate and phosphorylated product.

[2] = tested on: TLR2 induced IL-6 in peripheral blood mononuclear cells (PBMCs); experiment: PBMC TLR2 Induced IL-6 Assay; type: cell-based, human; settings: IL-6 by ELISA; for EC50: read-out: Cell EC50; for IC50: read-out: Cell IC50
Description: PBMC TLR2 Induced IL-6 Assay
Peripheral blood mononuclear cells (PBMCs) were isolated from human blood containing the anti-coagulant EDTA (2.5 mM) by centrifugation over a FICOLL® gradient. PBMCs (250000 cells/well) were cultured in assay media (RPMI with 10% heat inactivated FCS) with compounds for 30 minutes at 37° C. in a 5% CO2 incubator. Following pretreatment with compounds, cells were stimulated for 5 hours with 10 µg/ml lipoteichoic acid (Invivogen, San Diego, Calif.), a TLR2 agonist. At the end of the culture, plates were centrifuged at 1800 rpm for 10 minutes to pellet the cells.

[3] = Homo sapiens, PBMC, PBMC TLR2 Induced IL-6 Assay, lipoteichoic acid stimulation
[4] = Homo sapiens, PBMC, human PBMCs, lipoteichoic acid stimulated
[5] = PBMC TLR2 Induced IL-6 Assay, lipoteichoic acid stimulation
[6] = human PBMCs, lipoteichoic acid stimulated

IRAK4, sequence (Q9NWZ3 whole entry, species assumed): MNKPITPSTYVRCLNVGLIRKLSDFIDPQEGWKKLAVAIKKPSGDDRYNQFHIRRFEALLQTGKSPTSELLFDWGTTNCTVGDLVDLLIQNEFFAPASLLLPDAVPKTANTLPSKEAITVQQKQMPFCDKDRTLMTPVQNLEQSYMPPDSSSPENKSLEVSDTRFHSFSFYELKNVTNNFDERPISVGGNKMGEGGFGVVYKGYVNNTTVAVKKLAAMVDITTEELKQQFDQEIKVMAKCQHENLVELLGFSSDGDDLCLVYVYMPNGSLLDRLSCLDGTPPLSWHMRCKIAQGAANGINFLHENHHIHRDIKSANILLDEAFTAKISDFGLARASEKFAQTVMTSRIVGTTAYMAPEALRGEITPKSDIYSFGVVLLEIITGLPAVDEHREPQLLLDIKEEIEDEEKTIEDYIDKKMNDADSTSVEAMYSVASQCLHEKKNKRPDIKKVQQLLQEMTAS

`CC(C)Nc1cc(-n2ccc3cnc(N4CC[C@@H](O)C4)nc32)ncc1C(=O)NC[C@@H](F)C(C)(C)O` [Example 190, N—((R)-2-fluoro-3-hydroxy-3-methylbutyl)-6-(2-((R)-3-hydroxypyrrolidin-1-yl)-7H-pyrrolo[2,3-d]pyrimidin-7-yl)-4-(isopropylamino)nicotinamide] gave an IC50 ([1]; IRAK4 Inhibition Assay) of 4.7 nM and an EC50 [2, 3] of 120 nM.
With `CCS(=O)(=O)N1CCC(NC(=O)c2cnc(-n3ncc4cc(C#N)cnc43)cc2NC(C)C)CC1` [Example 290] the IC50 ([1]; IRAK4 Inhibition Assay) was 5.9 nM and the IC50 [2, 3] was 364 nM.
Work on `CC(C)Nc1cc(-n2ncc3cc(C#N)cnc32)ncc1C(=O)N[C@H]1CCCN(S(C)(=O)=O)C1` [Example 246] yielded an IC50 ([1]; IRAK4 Inhibition Assay) of 19.8 nM and an EC50 [2, 3] of 353 nM.
`CC(C)NC(=O)c1cnc(-n2ncc3cc(C#N)cnc32)cc1Nc1cnn(CC(F)F)c1` [Example 388] was tested, and the IC50 ([1]; IRAK4 Inhibition Assay) was 11.2 nM and the IC50 [2, 3] was 245 nM.
`CC(C)(O)[C@H](F)CNC(=O)c1cnc(-n2ncc3cc(C#N)cnc32)cc1N[C@H]1CC[C@H](NC2COC2)CC1` [Example 622] showed an IC50 ([1]; IRAK4 0.6 nM) of 5.2 nM and an IC50 [2, 4] of 132 nM.
`COC[C@H](F)CNC(=O)c1cnc(-n2ncc3cc(C#N)cnc32)cc1NC(C)C` [Example 128, (R)-6-(5-Cyano-1H-pyrazolo[3,4-b]pyridin-1-yl)-N-(2-fluoro-3-methoxypropyl)-4-(isopropylamino)nicotinamide] was tested, and the IC50 ([1]; IRAK4 Inhibition Assay) was 8.9 nM and the EC50 [2, 3] was 248 nM.
`CC(C)(O)[C@H](F)CNC(=O)c1cnc(-n2ccc3cc(C#N)cnc32)cc1N[C@H]1CCOC1` [Example 441] showed an IC50 ([1]; IRAK4 0.6 nM) of 3 nM and an EC50 [2, 4] of 109 nM.
`CC(C)(C)NC(=O)c1cnc(-n2ncc3cc(C#N)cnc32)cc1Nc1cnn(CC(F)F)c1` [Example 390] was tested, and the IC50 ([1]; IRAK4 Inhibition Assay) was 17 nM and the IC50 [2, 3] was 199 nM.
For `Cc1cc(Nc2cc(-n3ncc4cc(C#N)cnc43)ncc2C(=O)NC[C@@H](F)C(C)(C)O)n(C)n1` [Example 413], the IC50 ([1]; IRAK4 0.6 nM) was 7 nM and the IC50 [2, 4] was 382 nM.
With `CC(C)(O)[C@H](F)CNC(=O)c1cnc(-n2ncc3cc(C#N)cnc32)cc1N[C@H]1CCN(c2ncc(F)cn2)C1` [Example 533] the IC50 ([1]; IRAK4 0.6 nM) was 10.3 nM and the EC50 [2, 4] was 194 nM.
Work on `COC1CCN(c2ccc(NC(=O)c3cnc(-n4ncc5cc(C#N)cnc54)cc3NC(C)C)cn2)CC1` [Example 247] yielded an IC50 ([1]; IRAK4 Inhibition Assay) of 6.8 nM and an EC50 [2, 3] of 173 nM.
`CC(C)CC(=O)NCc1cnc2c(cnn2-c2cc(NC(C)C)c(C(=O)NC[C@@H](F)C(C)(C)O)cn2)c1` [Example 280] gave an IC50 ([1]; IRAK4 Inhibition Assay) of 16.9 nM and an IC50 [2, 3] of 692 nM.
With `CC(C)(CNc1cc(-n2ncc3cc(Cl)cnc32)ncc1C(=O)NC[C@@H](F)C(C)(C)O)OC(F)F` [Example 603] the IC50 ([1]; IRAK4 0.6 nM) was 6.7 nM and the IC50 [2, 4] was 321 nM.
In the case of `CC(C)Nc1cc(-n2ccc(-c3ccnnc3)n2)ncc1C(=O)NC[C@@H](F)C(C)(C)O` [Example 168, (R)—N-(2-Fluoro-3-hydroxy-3-methylbutyl)-4-(isopropylamino)-6-(3-(pyridazin-4-yl)-1H-pyrazol-1-yl)nicotinamide], the IC50 ([1]; IRAK4 Inhibition Assay) is reported as 13.1 nM and the EC50 [2, 3] is reported as 305 nM.
Compound `CC(Nc1cc(-n2ncc3cc(C#N)c(N)nc32)ncc1C(=O)NC[C@@H](F)C(C)(C)O)C(F)(F)F` (stereo partly shown) [Example 301] has an IC50 ([1]; IRAK4 Inhibition Assay) of 2.4 nM and an IC50 [2, 3] of 63 nM.
In the case of `CC(C)(O)[C@H](F)CNC(=O)c1cnc(-n2ccc3cc(C#N)cnc32)cc1NC1CCC(O)C1` (single isomer, unassigned) [Example 27], the EC50 [2, 5] is reported as 44 nM.
`CC(C)Nc1cc(-n2ccc3cc(Cl)cnc32)ncc1C(=O)NC[C@@H](F)C(C)(C)O` [Example 76, (R)-6-(5-chloro-1H-pyrrolo[2,3-b]pyridin-1-yl)-N-(2-fluoro-3-hydroxy-3-methylbutyl)-4-(isopropylamino) nicotinamide] gave an IC50 [2, 3] of 395 nM.
For `CC(C)Nc1cc(-n2ncc3cc(Cl)c(N)nc32)ncc1C(=O)NC[C@@H](F)C(C)(C)O` [Example 282], the IC50 [2, 3] was 541 nM.
`CCCNc1cc(-n2ncc3cc(C#N)cnc32)ncc1C(=O)NC[C@@H](F)C(C)(C)O` [Example 592] showed an IC50 [2, 4] of 271 nM.
With `CC(C)(O)[C@H](F)CNC(=O)c1cnc(-n2ccc3cc(C#N)cnc32)cc1NC1CCC(O)C1` (single isomer, unassigned) [Example 24] the EC50 [2, 5] was 30 nM.
For `CC(C)(O)[C@H](F)CNC(=O)c1cnc(-n2ncc3cc(C#N)cnc32)cc1N[C@@H]1CCOC1` [Example 544, 6-(5-Cyano-1H-pyrazolo[3,4-b]pyridin-1-yl)-N—((R)-2-fluoro-3-hydroxy-3-methylbutyl)-4-(((R)-tetrahydrofuran-3-yl)amino)nicotinamide, TFA salt], the EC50 ([2]; human PBMCs, lipoteichoic acid stimulated, TFA salt) was 239 nM.
`CC(C)Nc1cc(-n2ccc3cc(C#N)cnc32)ncc1C(=O)NC[C@@H](F)C(C)O` (single isomer, unassigned) [Example 49] showed an EC50 [2, 5] of 71 nM.
For `CC(C)(O)[C@H](F)CNC(=O)c1cnc(-n2ncc3cc(C#N)cnc32)cc1NC1CCC(F)C1` (stereo partly shown) [Example 626], the IC50 [2, 6] was 76 nM.
With `CC(Nc1cc(-n2ncc3cc(C#N)cnc32)ncc1C(=O)NC[C@@H](F)C(C)(C)O)C(F)(F)F` (stereo partly shown) [Example 297] the IC50 [2, 3] was 219 nM.
`CC(C)(O)[C@H](F)CNC(=O)c1cnc(-n2ccc3cc(C#N)cnc32)cc1NC1CCC(O)C1` (single isomer, unassigned) [Example 26] was tested, and the EC50 [2, 5] was 168 nM.
With `CC(C)Nc1cc(-n2ncc3cc(C#N)cnc32)ncc1C(=O)NCC1CCS(=O)(=O)C1` (stereo not shown) [Example 209] the EC50 [2, 3] was 322 nM.
With `CCCNc1cc(-n2ncc3cc(C#N)cnc32)ncc1C(=O)NC[C@@H](F)C(C)(C)O` [Example 337] the EC50 [2, 3] was 572 nM and the IC50 [2, 3] was 765 nM.
In the case of `CC(C)Nc1cc(-n2ncc3cc(Cl)cnc32)ncc1C(=O)NC[C@@H](F)C(C)(C)O` [Example 137, (R)-6-(5-chloro-1H-pyrazolo[3,4-b]pyridin-1-yl)-N-(2-fluoro-3-hydroxy-3-methylbutyl)-4-(isopropylamino)nicotinamide], the EC50 [2, 3] is reported as 84 nM.
`CC(C)Nc1cc(-n2ncc3cc(C#N)cnc32)ncc1C(=O)N[C@H]1CC[C@H](NC(=O)[C@@H](C)O)CC1` [Example 287] gave an IC50 [2, 3] of 489 nM.
`CC(F)CCNc1cc(-n2ncc3cc(C#N)cnc32)ncc1C(=O)NC[C@@H](F)C(C)(C)O` (stereo partly shown) [Example 604] was tested, and the IC50 [2, 4] was 104 nM.
Work on `CC(C)(O)[C@H](F)CNC(=O)c1cnc(-n2ncc3cc(F)cnc32)cc1NC1CCC(O)C1` (mixture of isomers) [Example 611] yielded an EC50 [2, 6] of 536 nM and an IC50 [2, 6] of 1850 nM.
Work on `CC(C)(O)[C@H](F)CNC(=O)c1cnc(-n2ncc3cc(C#N)cnc32)cc1N[C@@H]1CCOC1` [Example 548] yielded an IC50 [2, 4] of 763 nM and an EC50 [2, 6] of 708 nM.
With `CC(C)Nc1cc(-n2ccc3cc(C#N)cnc32)ncc1C(=O)NC[C@@H](F)C(C)O` (single isomer, unassigned) [Example 48] the EC50 [2, 5] was 24 nM.
`CC(C)(O)[C@H](F)CNC(=O)c1cnc(-n2ncc3cc(F)cnc32)cc1NC1CCC(O)C1` (single isomer, unassigned) [Example 609] showed an EC50 [2, 6] of 485 nM and an IC50 [2, 6] of 1440 nM.
Work on `C[C@H](CF)Nc1cc(-n2ncc3cc(C#N)cnc32)ncc1C(=O)NC[C@@H](F)C(C)(C)O` [Example 114, 6-(5-Cyano-1H-pyrazolo[3,4-b]pyridin-1-yl)-N—((R)-2-fluoro-3-hydroxy-3-methylbutyl)-4-(((R)-1-fluoropropan-2-yl)amino)nicotinamide] yielded an IC50 ([1]; IRAK4 Inhibition Assay) of 4.6 nM.
In the case of `CC(C)(O)[C@H](F)CNC(=O)c1cnc(-n2ncc3cc(C#N)cnc32)cc1N[C@H]1CCOC1` [Example 545, 6-(5-Cyano-1H-pyrazolo[3,4-b]pyridin-1-yl)-N—((R)-2-fluoro-3-hydroxy-3-methylbutyl)-4-(((S)-tetrahydrofuran-3-yl)amino)nicotinamide, TFA salt], the EC50 [2, 4] is reported as 476 nM.
